Data: PubChem BioAssay AID651617 (Broad Institute, 2012)

System: M. tuberculosis log-phase replicating growth, plate reader
Experiment: growth inhibition of replicating M. tuberculosis, dose response, counter-screen, dry powder (AID 651617)

Row | Structure (SMILES) | IC90 [µM]
1 | c1ccc(-c2nnc(SCC3CC3)o2)cc1 | 125
2 | c1ccc(-c2nnc(SCc3cccnc3)o2)cc1 | 125
3 | [N-]=[N+]=NCCOCCNC(=O)CCCOc1ccc(CS(=O)c2nnc(-c3ccc(F)cc3)o2)nc1 (stereo not drawn) | 125
